# Data reported in patent US6737383B1, “Herbicidal oxadiazolidines” (priority 1999, dated 2004).
# How the values were obtained:
# [1] = test system: Russian thistle; experiment: Test E Russian thistle; format: in vivo, Salsola kali; settings: Postemergence
# Procedure: […] A mixture of sandy loam soil and greenhouse potting mix in a 60:40 ratio was used for the postemergence test.
# (§1) Plantings of these crops and weed species were adjusted to produce plants of appropriate size for the postemergence test. All plant species were grown using normal greenhouse practices. Crop and weed species include annual bluegrass (Poa annua), blackgrass (Alopecurus myosuroides), black nightshade (Solanum nigra), chickweed (Stellaria media), common poppy (Papaver rhoeas), deadnettle (Lamium amplexicaule), downy brome (Bromus tectorum), field violet (Viola arvensis), galium (Galium aparine), green foxtail (Setaria viridis), Italian ryegrass (Lolium multiflorum), jointed goatgrass (Aegilops cylindrica), kochia (Kochia scoparia), lambsquarters (Chenopodium album), littleseed canarygrass (Phalaris minor), rape (Brassica napus), redroot pigweed (Amaranthus retroflexus), Russian thistle (Salsola kali), scentless chamomile (Matricaria inodora), spring barley (Hordeum vulgare), sugar beet (Beta vulgaris), sunflower (Helianthus annuus), ivyleaf speedwell (Veronica hederaefolia), spring wheat (Triticum aestivum), winter wheat (Triticum aestivum), wild buckwheat (Polygonum convolvulus), wild mustard (Sinapis arvensis), wild oat (Avena fatua), windgrass (Apera spica-venti) and winter barley (Hordeum vulgare).
# (§2) Treated plants and untreated controls were maintained in a greenhouse for approximately 21 to 28 days, after which all treated plants were compared to untreated controls and visually evaluated. […] A dash response (-) means no test result.
# [2] = test system: deadnettle; experiment: Test E deadnettle; format: in vivo, Lamium amplexicaule; settings: Preemergence
# [3] = test system: wild buckwheat; experiment: Test E wild buckwheat; format: in vivo, Polygonum convolvulus; settings: Preemergence
# [4] = test system: winter barley; experiment: Test E winter barley; format: in vivo, Hordeum vulgare; settings: Postemergence
# Procedure: (§3) Compounds evaluated in this test were formulated in a non-phytotoxic solvent mixture which included a surfactant and applied to plants that were in the 1- to 4-leaf stage (postemergence application). A mixture of sandy loam soil and greenhouse potting mix in a 60:40 ratio was used for the postemergence test.
# as §1, §2
# [5] = test system: wild buckwheat; experiment: Test E wild buckwheat; format: in vivo, Polygonum convolvulus; settings: Postemergence
# Method in brief: (§4)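 Compound formulated with surfactant in a non-phytotoxic solvent (postemergence: young 1- to 4-leaf plants); held in greenhouse approx. 21–28 days; visual assessment against untreated plants.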
# [6] = test system: galium; experiment: Test E galium; format: in vivo, Galium aparine; settings: Preemergence
# [7] = test system: rape; experiment: Test E rape; format: in vivo, Brassica napus; settings: Preemergence
# [8] = test system: wild mustard; experiment: Test E wild mustard; format: in vivo, Sinapis arvensis; settings: Preemergence
# [9] = test system: Italian ryegrass; experiment: Test E Italian ryegrass; format: in vivo, Lolium multiflorum; settings: Postemergence
# Procedure: as §3, §1, §2
# [10] = test system: spring wheat; experiment: Test E spring wheat; format: in vivo, Triticum aestivum; settings: Postemergence
# Procedure: as §3, §1, §2
# [11] = test system: jointed goatgrass; experiment: Test E jointed goatgrass; format: in vivo, Aegilops cylindrica; settings: Preemergence
# [12] = test system: downy brome; experiment: Test E downy brome; format: in vivo, Bromus tectorum; settings: Preemergence
# [13] = test system: kochia; experiment: Test E kochia; format: in vivo, Kochia scoparia; settings: Postemergence
# Procedure: as §3, §1, §2
# [14] = test system: Russian thistle; experiment: Test E Russian thistle; format: in vivo, Salsola kali; settings: Preemergence
# [15] = test system: lambsquarters; experiment: Test E lambsquarters; format: in vivo, Chenopodium album; settings: Postemergence
# Procedure: as §3, §1, §2
# [16] = test system: deadnettle; experiment: Test E deadnettle; format: in vivo, Lamium amplexicaule; settings: Postemergence
# Method in brief: as §4
# [17] = test system: black nightshade; experiment: Test E black nightshade; format: in vivo, Solanum nigra; settings: Preemergence
# [18] = test system: common poppy; experiment: Test E common poppy; format: in vivo, Papaver rhoeas; settings: Postemergence
# Procedure: as §3, §1, §2
# [19] = Rate 250 g/ha, 0 to 100 scale (0 no effect, 100 complete control)
# [20] = Rate 500 g/ha, 0 to 100 scale, 0 no effect, 100 complete control
# [21] = Rate 125 g/ha, 0 to 100 scale (0 no effect, 100 complete control)
# [22] = Rate 500 g/ha, 0 to 100 scale where 0 is no effect and 100 is complete control
structure (smiles),measurement,setting,value
CC(C)N(C(=O)n1oc(=O)n(C(C)C)c1=O)c1ccc(F)cc1F [Compound 109],"Plant response rating, Russian thistle","[1]; Rate 125 g/ha, 0 to 100 scale",0
same,"Plant response rating, Russian thistle",[1]; [19],0
same,"Plant response rating, Russian thistle",[1]; [20],0
same,"Plant response rating, Deadnettle",[2]; [21],20
same,"Plant response rating, Deadnettle","[2]; Rate 250 g/ha, 0 to 100 scale",30
same,"Plant response rating, Deadnettle",[2]; [22],30
same,"Plant response rating, Wild buckwheat",[3]; [21],20
same,"Plant response rating, Wild buckwheat","[3]; Rate 250 g/ha, 0 to 100 scale",85
same,"Plant response rating, Wild buckwheat",[3]; [22],90
same,"Plant response rating, Barley (winter)","[4]; Rate 125 g/ha, 0 to 100 scale",40
same,"Plant response rating, Barley (winter)",[4]; [19],20
same,"Plant response rating, Barley (winter)",[4]; [20],10
same,"Plant response rating, Wild buckwheat","[5]; Rate 125 g/ha, 0 to 100 scale",10
same,"Plant response rating, Wild buckwheat",[5]; [19],20
same,"Plant response rating, Wild buckwheat",[5]; [20],10
same,"Plant response rating, Galium",[6]; [21],100
same,"Plant response rating, Galium","[6]; Rate 250 g/ha, 0 to 100 scale",100
same,"Plant response rating, Galium",[6]; [22],100
same,"Plant response rating, Rape",[7]; [21],10
same,"Plant response rating, Rape","[7]; Rate 250 g/ha, 0 to 100 scale",55
same,"Plant response rating, Rape",[7]; [22],65
same,"Plant response rating, Wild mustard",[8]; [21],30
same,"Plant response rating, Wild mustard","[8]; Rate 250 g/ha, 0 to 100 scale",85
same,"Plant response rating, Wild mustard",[8]; [22],80
same,"Plant response rating, I. Ryegrass","[9]; Rate 125 g/ha, 0 to 100 scale",10
same,"Plant response rating, I. Ryegrass",[9]; [19],10
same,"Plant response rating, I. Ryegrass",[9]; [20],65
same,"Plant response rating, Spring Wheat","[10]; Rate 125 g/ha, 0 to 100 scale",30
same,"Plant response rating, Spring Wheat",[10]; [19],20
same,"Plant response rating, Spring Wheat",[10]; [20],10
same,"Plant response rating, Jointed goatgra",[11]; [21],20
same,"Plant response rating, Jointed goatgra","[11]; Rate 250 g/ha, 0 to 100 scale",65
same,"Plant response rating, Jointed goatgra",[11]; [22],70
same,"Plant response rating, Downy brome",[12]; [21],0
same,"Plant response rating, Downy brome","[12]; Rate 250 g/ha, 0 to 100 scale",80
same,"Plant response rating, Downy brome",[12]; [22],60
same,"Plant response rating, Kochia","[13]; Rate 125 g/ha, 0 to 100 scale",30
same,"Plant response rating, Kochia",[13]; [19],30
same,"Plant response rating, Kochia",[13]; [20],50
same,"Plant response rating, Russian thistle",[14]; [21],0
same,"Plant response rating, Russian thistle","[14]; Rate 250 g/ha, 0 to 100 scale",0
same,"Plant response rating, Russian thistle",[14]; [22],0
same,Plant response rating Lambsquarters,"[15]; Rate 125 g/ha, 0 to 100 scale",20
same,Plant response rating Lambsquarters,[15]; [19],30
same,Plant response rating Lambsquarters,[15]; [20],30
same,"Plant response rating, Deadnettle","[16]; Rate 125 g/ha, 0 to 100 scale",0
same,"Plant response rating, Deadnettle",[16]; [19],30
same,"Plant response rating, Deadnettle",[16]; [20],30
same,"Plant response rating, Blk nightshade",[17]; [21],75
same,"Plant response rating, Blk nightshade","[17]; Rate 250 g/ha, 0 to 100 scale",90
same,"Plant response rating, Blk nightshade",[17]; [22],90
same,"Plant response rating, Comnion poppy","[18]; Rate 125 g/ha, 0 to 100 scale",30
same,"Plant response rating, Common poppy",[18]; [19],10
same,"Plant response rating, Common poppy",[18]; [20],10
